How the values were obtained:
[1] = tested on: rat; details: Fertility (Segment I); sprague dawley; Oral; Gavage/Intubation; dose end: 4 week; group: parental; systemic / organ weight / epididymis / relative to body weight + systemic / pathology microscopic / epididymis / [other] + systemic / …
[2] = tested on: mouse; details: Carcinogenicity, b6c3f1, Oral, Feed, dose end: 103 week, group: systemic
[3] = tested on: rat; details: Carcinogenicity; fischer; Oral; Feed; dose end: 103 week; group: systemic; systemic / in life observation / clinical signs / drooping eyelids (ptosis) + systemic / pathology microscopic / adrenal gland / …
[4] = tested on: mouse; details: Subchronic oral toxicity in rodents, b6c3f1, Feed, dose end: 13 week, group: systemic, systemic / in life observation / body weight / body weight
[5] = tested on: rat; details: Subchronic oral toxicity in rodents, fischer, Gavage/Intubation, dose end: 13 week, group: systemic
[6] = tested on: rat; details: Prenatal developmental toxicity study, sprague dawley, Oral, Gavage/Intubation, dose end: 15 GD
[7] = tested on: rat; details: Carcinogenicity, fischer, Oral, Gavage/Intubation, dose end: 2 year, group: systemic
[8] = tested on: mouse; details: Subchronic oral toxicity in rodents, b6c3f1, Gavage/Intubation, dose end: 13 week, group: systemic, systemic / in life observation / clinical signs / lethargy + systemic / organ weight / liver / absolute + systemic / organ weight / liver / …
[9] = tested on: mouse; details: Carcinogenicity, b6c3f1, Oral, Gavage/Intubation, dose end: 2 year, group: systemic
[10] = tested on: rabbit; details: Prenatal developmental toxicity study, new zealand white, Oral, Gavage/Intubation, dose end: 18 GD
[11] = tested on: rat; details: Multigenerational reproductive toxicity study, sprague dawley, Oral, Gavage/Intubation, dose end: 2 generation, group: parental
[12] = systemic / in life observation / body weight / body weight
[13] = systemic / in life observation / body weight / body weight + systemic / pathology microscopic / mammary gland / mixed tumor malignant + …
[14] = systemic / organ weight / liver / absolute + systemic / organ weight / liver / relative to body weight
[15] = group: developmental, systemic / in life observation / body weight / fetal weight
[16] = group: maternal, systemic / in life observation / clinical signs / urine, discoloration
[17] = group: maternal, systemic / in life observation / clinical signs / urine, discoloration + systemic / in life observation / body weight / body weight + …
[18] = systemic / in life observation / body weight / body weight + systemic / organ weight / kidney / relative to body weight + systemic / …
[19] = systemic / in life observation / body weight / body weight + systemic / pathology microscopic / blood / leukemia mononuclear
[20] = systemic / in life observation / body weight / body weight + systemic / pathology microscopic / thyroid gland / hyperplasia + systemic / …
[21] = systemic / pathology microscopic / thyroid gland / hyperplasia + systemic / pathology microscopic / liver / cytomegaly + systemic / …
[22] = group: developmental, developmental / developmental malformation / bone / bent + developmental / developmental malformation / eye / microphthalmia
[23] = group: maternal, systemic / in life observation / body weight / body weight + systemic / in life observation / body weight / body weight gain + systemic / in…
[24] = systemic / in life observation / clinical signs / tremors + systemic / in life observation / body weight / body weight gain

## COS(C)(=O)=O [Methyl methanesulfonate]
[1]
  LEL: 20 mg/kg/day
  LOAEL: > 20 mg/kg/day
  NEL: < 20 mg/kg/day
  NOAEL: ≥ 20 mg/kg/day

## COC(=O)[C@H]1[C@H]2C[C@@H]3c4[nH]c5cc(OC)ccc5c4CCN3C[C@H]2C[C@@H](OC(=O)c2cc(OC)c(OC)c(OC)c2)[C@@H]1OC [Reserpine]
[2]; [12]
  LOAEL: 0.75 mg/kg/day
  NOAEL: < 0.75 mg/kg/day
[2]; [13]
  LEL: 0.75 mg/kg/day
  NEL: < 0.75 mg/kg/day
[3]
  LEL: 0.25 mg/kg/day
  LOAEL: > 0.5 mg/kg/day
  NEL: < 0.25 mg/kg/day
  NOAEL: ≥ 0.5 mg/kg/day
[4]
  LEL: 0.06 mg/kg/day
  LOAEL: 0.225 mg/kg/day
  NEL: < 0.06 mg/kg/day
  NOAEL: 0.12 mg/kg/day

## Oc1ccc(O)cc1 [Hydroquinone]
[5]; systemic / in life observation / clinical signs / lethargy + systemic / pathology microscopic / kidney / degeneration + systemic / pathology…
  LOAEL: 200 mg/kg/day
[5]; [14]
  LEL: 25 mg/kg/day
  NEL: < 25 mg/kg/day
[5]; systemic / organ weight / liver / absolute + systemic / organ weight / liver / relative to body weight + systemic / in life observation / …
  NOAEL: 100 mg/kg/day
[6]; [15]
  LEL: 300 mg/kg/day
  LOAEL: > 300 mg/kg/day
  NEL: 100 mg/kg/day
  NOAEL: ≥ 300 mg/kg/day
[6]; [16]
  LEL: 30 mg/kg/day
  NEL: < 30 mg/kg/day
[6]; [17]
  LOAEL: > 300 mg/kg/day
  NOAEL: ≥ 300 mg/kg/day
[7]; [18]
  LOAEL: 50 mg/kg/day
  NOAEL: 25 mg/kg/day
[7]; [19]
  LEL: 25 mg/kg/day
  NEL: < 25 mg/kg/day
[8]
  LEL: 25 mg/kg/day
  LOAEL: > 400 mg/kg/day
  NEL: < 25 mg/kg/day
  NOAEL: ≥ 400 mg/kg/day
[9]; [20]
  LOAEL: 100 mg/kg/day
  NOAEL: 50 mg/kg/day
[9]; [21]
  LEL: 50 mg/kg/day
  NEL: < 50 mg/kg/day
[10]; [22]
  LEL: 150 mg/kg/day
  LOAEL: > 150 mg/kg/day
  NEL: 75 mg/kg/day
  NOAEL: ≥ 150 mg/kg/day
[10]; [23]
  LOAEL: > 150 mg/kg/day
  NEL: 25 mg/kg/day
  NOAEL: ≥ 150 mg/kg/day
[10]; group: maternal, systemic / in life observation / food consumption / food consumption
  LEL: 75 mg/kg/day
[11]; systemic / in life observation / clinical signs / tremors
  NEL: 50 mg/kg/day
[11]; [24]
  LEL: 150 mg/kg/day
  LOAEL: > 150 mg/kg/day
  NOAEL: ≥ 150 mg/kg/day
